Measurements published in US9334263B2, “Compositions useful for treating disorders related to kit” (BLUEPRINT MEDICINES CORPORATION, priority 2013, dated 2016).

Key:
[1] = target: T1, Kit D816V (HMC1.2 cells, Kit V560G and D816V) (Homo sapiens, UniProt P10721, D816V/V560G); assay: HMC1.2 autophosphorylation assay (AlphaLISA, phospho-Y719 c-Kit); assay type: cell-based; details: Kit autophosphorylation at tyrosine 719, 90 minutes, read-out: Cellular Activity
T1 construct: endogenous in cells; host or cells: HMC1.2 cells
Summary of the method: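 AlphaScreen signal comes from lysed HMC1.2 cells incubated with phospho-Y719 and total c-Kit antibodies (15 nM final), acceptor beads and then streptavidin donor beads, 2 h each at room temperature. Beforehand, cells deprived of serum overnight received compound for 90 min as a 10-point series, 25 uM–95.4 pM, 0.25% DMSO.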

PDGFRA D842V = target: T2, PDGFRA D842V (Homo sapiens, UniProt P16234, D842V); assay: PDGFRA D842V assay at Km (Caliper electrophoretic mobility shift); assay type: biochemical; details: 15 uM ATP, 25 C, 90 minutes; read-out: PDFGRA D842V
T2 construct: purchased ProQinase 0761-0000-1
Procedure: (§1) In order to assess the activity of chemical compounds against the relevant kinase of interest, the Caliper LifeSciences electrophoretic mobility shift technology platform is used. Fluorescently labeled substrate peptide is incubated in the presence of kinase and ATP so that a […] proportion of the peptide is phosphorylated. At the end of the reaction, the mix of phosphorylated (product) and non-phosphorylated (substrate) peptides are passed through the microfluidic system of the Caliper EZ Reader 2, under an applied potential difference. The presence of the phosphate group on the product peptide provides a difference in mass and charge between those of the substrate peptide, resulting in a separation of the substrate and product pools in the sample. As the pools pass a LEDS within the instrument, these pools are detected and resolved as separate peaks. The ratio between these peaks therefore reflects the activity of the chemical matter at that concentration in that well, under those conditions.
(§2) The reaction was stopped by the addition of 70 ul of Stop buffer (100 mM HEPES pH 7.5, 0.015% Brij 35, 35 mM EDTA and 0.2% of Coating Reagent 3 (Caliper Lifesciences)). The plate was then read on a Caliper EZReader 2 (protocol settings: −1.9 psi, upstream voltage −500, downstream voltage −3000, post sample sip 38 s).

D816V Kit = target: T3, D816V Kit (Homo sapiens, UniProt P10721, D816V); assay: Kit D816V assay at Km (Caliper electrophoretic mobility shift); assay type: biochemical; details: 15 uM ATP, 25 C, 90 minutes
T3 construct: purchased Carna Bioscience 08-156
Summary of the method: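 Read-out is the ratio of phosphorylated to unphosphorylated fluorescent peptide, resolved by mobility shift on a Caliper EZ Reader 2.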

wild type Kit = target: T4, wild type Kit (Homo sapiens, UniProt P10721); assay: Kit wild type assay at Km (Caliper electrophoretic mobility shift); assay type: biochemical; details: 400 uM ATP, 25 C, 90 minutes; read-out: WT KIT
T4 construct: purchased Carna Bioscience 08-156
Procedure: as §1
as §2, with “−700,” for “−500,”, “35” for “38”

T3 sequence (P10721 26-976 D816V): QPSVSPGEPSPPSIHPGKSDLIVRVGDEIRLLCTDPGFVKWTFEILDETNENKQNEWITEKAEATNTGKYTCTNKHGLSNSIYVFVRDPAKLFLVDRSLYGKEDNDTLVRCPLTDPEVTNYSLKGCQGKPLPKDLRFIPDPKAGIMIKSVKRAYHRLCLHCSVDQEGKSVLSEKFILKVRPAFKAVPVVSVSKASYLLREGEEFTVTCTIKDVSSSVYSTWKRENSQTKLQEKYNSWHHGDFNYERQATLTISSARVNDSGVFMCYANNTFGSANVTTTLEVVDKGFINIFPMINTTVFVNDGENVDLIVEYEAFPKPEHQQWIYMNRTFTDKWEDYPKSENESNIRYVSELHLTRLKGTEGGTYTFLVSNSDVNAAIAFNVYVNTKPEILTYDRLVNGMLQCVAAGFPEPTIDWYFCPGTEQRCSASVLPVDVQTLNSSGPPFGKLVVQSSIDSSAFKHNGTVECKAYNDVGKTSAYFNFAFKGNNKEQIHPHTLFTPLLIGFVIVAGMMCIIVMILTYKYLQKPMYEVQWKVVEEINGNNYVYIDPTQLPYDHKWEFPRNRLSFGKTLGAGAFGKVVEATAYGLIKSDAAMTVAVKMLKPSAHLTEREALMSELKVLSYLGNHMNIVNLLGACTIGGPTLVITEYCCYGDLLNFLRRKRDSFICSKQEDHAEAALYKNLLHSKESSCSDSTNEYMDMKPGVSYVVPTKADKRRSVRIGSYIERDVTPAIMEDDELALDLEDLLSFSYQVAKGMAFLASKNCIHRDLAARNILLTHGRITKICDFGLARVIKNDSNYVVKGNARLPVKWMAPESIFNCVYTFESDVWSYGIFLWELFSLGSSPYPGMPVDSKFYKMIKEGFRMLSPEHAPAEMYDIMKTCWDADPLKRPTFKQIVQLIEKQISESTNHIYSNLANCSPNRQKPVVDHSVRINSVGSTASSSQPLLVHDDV
T2 sequence (P16234 24-1089 D842V): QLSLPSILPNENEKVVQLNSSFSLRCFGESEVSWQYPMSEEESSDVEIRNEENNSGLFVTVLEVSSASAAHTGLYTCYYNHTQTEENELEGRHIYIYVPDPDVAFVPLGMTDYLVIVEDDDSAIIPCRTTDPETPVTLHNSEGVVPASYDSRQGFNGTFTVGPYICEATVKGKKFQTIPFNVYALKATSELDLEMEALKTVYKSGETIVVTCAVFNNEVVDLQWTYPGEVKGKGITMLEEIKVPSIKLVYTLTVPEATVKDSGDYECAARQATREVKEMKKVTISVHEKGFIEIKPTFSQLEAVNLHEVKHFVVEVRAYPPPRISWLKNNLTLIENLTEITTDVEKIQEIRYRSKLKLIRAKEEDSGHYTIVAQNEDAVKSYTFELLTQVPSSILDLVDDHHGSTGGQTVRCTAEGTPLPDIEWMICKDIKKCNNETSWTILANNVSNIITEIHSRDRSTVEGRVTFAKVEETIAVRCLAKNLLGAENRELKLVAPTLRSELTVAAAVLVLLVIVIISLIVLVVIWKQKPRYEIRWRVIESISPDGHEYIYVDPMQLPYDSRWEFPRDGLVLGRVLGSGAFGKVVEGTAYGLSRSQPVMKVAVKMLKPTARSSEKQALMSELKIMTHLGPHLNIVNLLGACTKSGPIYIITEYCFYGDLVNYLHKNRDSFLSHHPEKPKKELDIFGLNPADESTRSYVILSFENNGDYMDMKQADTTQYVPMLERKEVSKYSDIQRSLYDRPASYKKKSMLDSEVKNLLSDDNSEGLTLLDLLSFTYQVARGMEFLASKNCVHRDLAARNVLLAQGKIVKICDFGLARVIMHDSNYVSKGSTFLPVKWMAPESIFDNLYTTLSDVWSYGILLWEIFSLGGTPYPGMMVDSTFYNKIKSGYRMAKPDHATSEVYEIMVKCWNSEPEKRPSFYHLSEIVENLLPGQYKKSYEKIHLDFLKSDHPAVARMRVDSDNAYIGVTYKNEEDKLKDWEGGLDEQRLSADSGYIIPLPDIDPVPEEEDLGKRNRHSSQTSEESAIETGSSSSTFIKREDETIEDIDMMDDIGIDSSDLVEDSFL
T1 sequence (P10721 26-976 V560G/D816V): as the sequence (P10721 26-976 D816V) above, with V535G counted along it
T4 sequence (P10721 26-976): as the sequence (P10721 26-976 D816V) above, with V791D counted along it

| Structure (SMILES) | IC50 [1] [nM] | IC50 (PDGFRA D842V) [nM] | IC50 (D816V Kit) [nM] | IC50 (wild type Kit) [nM] |
| --- | --- | --- | --- | --- |
| c1ccc(Cc2cnc(N3CCN(c4ncnc(Nc5cnn([C@@H]6CCNC6)c5)n4)CC3)nc2)cc1 (single isomer, unassigned) [Compound 53] | 10 to 100 | < 1 | < 1 | < 10 |
| C[C@]1(O)CCCN(c2ccc(Nc3ncnc(N4CCN(c5ncc(Cc6ccccc6)cn5)CC4)n3)cc2)C1 (single isomer, unassigned) [Compound 226] | 10 to 100 | 1.01 to 10 | 1.01 to 10 |  |
| c1ccc(Cc2cnc(N3CCN(c4ncnc(Nc5cn[nH]c5)n4)CC3)nc2)cc1 [Compound 4] | 10 to 100 | < 1 | < 1 | < 10 |
| Cn1cc(Nc2ncnc(N3CCN(c4ncc(Cc5ccccc5)cn4)CC3)n2)cn1 [Compound 10] | 100 to 1000 | 1.01 to 10 | < 1 | 11 to 100 |
| Nc1cccc(Nc2ncnc(N3CCN(c4ncc(Cc5ccccc5)cn4)CC3)n2)c1 [Compound 12] | < 10 | < 1 | < 1 | < 10 |
| OCc1cccc(Nc2ncnc(N3CCN(c4ncc(Cc5ccccc5)cn4)CC3)n2)c1 [Compound 15] | 10 to 100 | < 1 | < 1 | 11 to 100 |
| CCNc1cccc(Nc2ncnc(N3CCN(c4ncc(Cc5ccccc5)cn4)CC3)n2)c1 [Compound 25] | 10 to 100 | < 1 | < 1 | 11 to 100 |
| CNCCn1cc(Nc2ncnc(N3CCN(c4ncc(Cc5ccccc5)cn4)CC3)n2)cn1 [Compound 30] | 10 to 100 | < 1 | < 1 | 11 to 100 |
| c1ccc(Cc2cnc(N3CCN(c4ncnc(Nc5cnc6c(c5)CNCC6)n4)CC3)nc2)cc1 [Compound 43] | 10 to 100 | 1.01 to 10 | < 1 | 11 to 100 |
| c1ccc(Cc2cnc(N3CCN(c4ncnc(Nc5ccc6c(c5)CNCC6)n4)CC3)nc2)nc1 [Compound 44] | 10 to 100 | 1.01 to 10 | 1.01 to 10 | 11 to 100 |
| c1ccc(Oc2cnc(N3CCN(c4ncnc(Nc5ccc6c(c5)CNCC6)n4)CC3)nc2)cc1 [Compound 46] | 10 to 100 | 1.01 to 10 | < 1 | < 10 |
| CC(=O)Nc1cccc(Nc2ncnc(N3CCN(c4ncc(Cc5ccccc5)cn4)CC3)n2)c1 [Compound 47] | 10 to 100 | < 1 | < 1 | 11 to 100 |
| CNC(C)c1cccc(Nc2ncnc(N3CCN(c4ncc(Cc5ccccc5)cn4)CC3)n2)c1 (stereo not drawn) [Compound 48] | 10 to 100 | < 1 | < 1 | < 10 |
| c1ccc(Cc2cnc(N3CCN(c4ncnc(Nc5cnn([C@H]6CCNC6)c5)n4)CC3)nc2)cc1 [Compound 52] | 10 to 100 | < 1 | < 1 | < 10 |
| CNCCCn1cc(Nc2ncnc(N3CCN(c4ncc(Cc5ccccc5)cn4)CC3)n2)cn1 [Compound 61] | 10 to 100 | < 1 | < 1 | < 10 |
| O=C1CCc2ccc(Nc3ncnc(N4CCN(c5ncc(Cc6ccccc6)cn5)CC4)n3)cc2N1 [Compound 68] | 10 to 100 | < 1 | 1.01 to 10 | 11 to 100 |
| CN1CCc2ccc(Nc3ncnc(N4CCN(c5ncc(Cc6ccccc6)cn5)CC4)n3)cc2C1 [Compound 69] | < 10 | < 1 | < 1 | < 10 |
| Nc1nc(N2CCN(c3ncnc(Nc4ccc5c(c4)CNCC5)n3)CC2)ncc1Cc1ccccc1 [Compound 73] | < 10 | < 1 | < 1 | < 10 |
| Oc1nc(N2CCN(c3ncnc(Nc4ccc5c(c4)CNCC5)n3)CC2)ncc1Cc1ccccc1 [Compound 75] | 10 to 100 | < 1 | < 1 | < 10 |
